Experiments:
Format in all cases: in vivo
[1] = system: Diabrotica balteata (Corn Root Worm); assay: Diabrotica balteata, artificial diet MTP test; settings: 120 h, 200 ppm (concentration in well 18 ppm), L2 larvae, larval mortality after 5 days
Method: A 24-well microtiter plate (MTP) with artificial diet was treated with test solutions at an application rate of 200 ppm (concentration in well 18 ppm) by pipetting. After drying, the MTP's were infested with L2 larvae (6-10 per well). After an incubation period of 5 days, samples were checked for larval mortality The following compound gave at least 80% control of Diabrotica balteata: 1, 2, 3, 4, 5, 6, 7, 8, 9, 10, 11, 12, 13, 14, 15, 16, 17, 18, 19, 20, 21, 22, 23, 24, 25, 26, 27, 28, 29, 30, 31, 32, 33, 34, 35, 36, 37, 38, 39, 40, 41, 42, 43, 44, 45, 46, 47, 48, 49, 50, 51.

[2] = system: Myzus persicae (Green Peach Aphid); assay: Myzus persicae, sunflower leaf disc spray test; settings: foliar, 144 h, sprayed sunflower leaf discs, aphid population of mixed ages, mortality after 6 DAT
Method: Sunflower leaf discs were placed on agar in a 24-well microtiter plate and sprayed with test solutions at an application rate of 200 ppm. After drying, the leaf discs were infested with an aphid population of mixed ages. After an incubation period of 6 DAT, samples were checked for mortality.

[3] = system: Myzus persicae (Green Peach Aphid); assay: Myzus persicae, sucrose solution / Parafilm test; settings: 120 h, mixed with sucrose solution under Parafilm, mortality 5 days after infestation
Source text: Test compounds were applied by pipette into 24 well plates and mixed with Sucrose solution. Application rate: 12.5 ppm. The plates were closed with a stretched Parafilm. A plastic stencil with 24 holes is placed onto the plate and infested pea seedlings were placed directly on the Parafilm. The infested plate is closed with a gel blotting paper and another plastic stencil and then turned upside down. 5 days after infestation the samples were checked on mortality.

[4] = system: Plutella xylostella (Diamond Back Moth); assay: Plutella xylostella, artificial diet MTP test; settings: 144 h, 200 ppm (concentration in well 18 ppm), L2 larvae, 6 days
Method: 24-well microtiter plate (MTP) with artificial diet was treated with test solutions at an application rate of 200 ppm (concentration in well 18 ppm) by pipetting. After drying, the MTP's were infested with L2 larvae (7-12 per well). After an incubation period of 6 days, samples were checked for larval mortality and growth regulation. The following compound gave at least 80% mortality of Plutella xylostella: 1, 2, 3, 4, 5, 6, 7, 8, 9, 10, 11, 12, 13, 14, 15, 16, 17, 18, 19, 20, 21, 22, 23, 24, 25, 26, 27, 28, 29, 30, 31, 32, 33, 34, 35, 36, 37, 38, 39, 40, 41, 42, 43, 44, 45, 46, 47, 48, 49, 50.

[5] = system: Spodoptera littoralis (Egyptian Cotton Leafworm); assay: Spodoptera littoralis, cotton leaf disc spray test; settings: foliar, 72 h, sprayed cotton leaf discs, L1 larvae, 3 days after treatment
Source text: Cotton leaf discs were placed on agar in a 24-well microtiter plate and sprayed with test solutions at an application rate of 200 ppm. After drying, the leaf discs were infested with 5 L1 larvae. The samples were checked for mortality 3 days after treatment (DAT).

[6] = system: Spodoptera littoralis (Egyptian Cotton Leaf Worm); assay: Spodoptera littoralis, agar / lettuce root uptake test; settings: 144 h, mixed with agar, uptake by lettuce roots, mortality 6 days after infestation
Source text: Test compounds were applied by pipette into 24 well plates and mixed with agar. Application rate: 12.5 ppm. Lettuce seeds were placed on the agar and the multi well plate is closed by another plate which contains also agar. After 7 days the roots have absorbed the compound and the lettuce has grown into the lid plate. The lettuce leafs were now cut off into the lid plate. Spodoptera eggs were pipetted through a plastic stencil on a humid gel blotting paper and the plate closed with it. The samples are checked for mortality 6 days after infestation.

[7] = system: Tetranychus urticae (Two-Spotted Spider Mite); assay: Tetranychus urticae, bean leaf disc spray test; settings: foliar, 192 h, sprayed bean leaf discs, mite populations of mixed ages, 8 days
Source text: Bean leaf discs on agar in 24-well microtiter plates were sprayed with test solutions at an application rate of 200 ppm. After drying, the leaf discs are infested with mite populations of mixed ages. 8 days later, discs were checked for mortality.

[8] = system: Thrips tabaci (Onion Thrips); assay: Thrips tabaci, sunflower leaf disc spray test; settings: foliar, 168 h, sprayed sunflower leaf discs, mortality after 7 days

CCN(C(=O)c1cc[n+]([O-])cc1)c1cccc(C(=O)Nc2c(Br)cc(C(F)(C(F)(F)F)C(F)(F)Cl)cc2OC(F)F)c1OC (stereo not drawn) [Compound 44, N-[3-[[2-bromo-4-[1-[chloro(difluoro)methyl]-1,2,2,2-tetrafluoro-ethyl]-6-(difluoromethoxy)phenyl]carbamoyl]-2-methoxy-phenyl]-N-ethyl-1-oxido-pyridin-1-ium-4-carboxamide]
≥ 80%: pest or weed control at 200 ppm [1] | pest or weed control at 200 ppm [2] | pest or weed control at 12.5 ppm [3] | mortality at 200 ppm [4] | mortality at 200 ppm [5] | pest or weed control at 12.5 ppm [6] | mortality at 200 ppm [7] | pest or weed control at 200 ppm [8]

N#Cc1ccc(C(=O)Nc2cccc(C(=O)Nc3c(Br)cc(C(F)(C(F)(F)F)C(F)(F)Cl)cc3OC(F)F)c2F)cc1 (stereo not drawn) [Compound 13]
≥ 80%: pest or weed control at 200 ppm [1] | pest or weed control at 200 ppm [2] | pest or weed control at 12.5 ppm [3] | mortality at 200 ppm [4] | mortality at 200 ppm [5] | pest or weed control at 12.5 ppm [6] | mortality at 200 ppm [7] | pest or weed control at 200 ppm [8]

COc1c(NC(=O)c2cc[n+]([O-])cc2)cccc1C(=O)Nc1c(Br)cc(C(F)(C(F)(F)F)C(F)(F)Cl)cc1OC(F)F (stereo not drawn) [Compound 25]
≥ 80%: pest or weed control at 200 ppm [1] | pest or weed control at 200 ppm [2] | pest or weed control at 12.5 ppm [3] | mortality at 200 ppm [4] | mortality at 200 ppm [5] | pest or weed control at 12.5 ppm [6] | mortality at 200 ppm [7] | pest or weed control at 200 ppm [8]

CCN(C(=O)c1ccc[n+]([O-])c1)c1cccc(C(=O)Nc2c(Br)cc(C(F)(C(F)(F)F)C(F)(F)Cl)cc2OC(F)F)c1F (stereo not drawn) [Compound 47]
≥ 80%: pest or weed control at 200 ppm [1] | pest or weed control at 200 ppm [2] | pest or weed control at 12.5 ppm [3] | mortality at 200 ppm [4] | mortality at 200 ppm [5] | pest or weed control at 12.5 ppm [6] | mortality at 200 ppm [7] | pest or weed control at 200 ppm [8]

CCN(C(=O)c1ccncc1)c1cccc(C(=O)Nc2c(Br)cc(C(F)(C(F)(F)F)C(F)(F)Cl)cc2OC(F)F)c1F (stereo not drawn) [Compound 35]
≥ 80%: pest or weed control at 200 ppm [1] | pest or weed control at 200 ppm [2] | pest or weed control at 12.5 ppm [3] | mortality at 200 ppm [4] | mortality at 200 ppm [5] | pest or weed control at 12.5 ppm [6] | mortality at 200 ppm [7] | pest or weed control at 200 ppm [8]

CCN(C(=O)c1ccc(C#N)cc1)c1cccc(C(=O)Nc2c(Cl)cc(C(F)(C(F)(F)F)C(F)(F)Br)cc2Br)c1OC (stereo not drawn) [Compound 1, N-[2-bromo-4-[1-[bromo(difluoro)methyl]-1,2,2,2-tetrafluoro-ethyl]-6-chloro-phenyl]-3-[(4-cyanobenzoyl)-ethyl-amino]-2-methoxy-benzamide]
≥ 80%: pest or weed control at 200 ppm [1] | pest or weed control at 200 ppm [2] | pest or weed control at 12.5 ppm [3] | mortality at 200 ppm [4] | mortality at 200 ppm [5] | pest or weed control at 12.5 ppm [6] | mortality at 200 ppm [7] | pest or weed control at 200 ppm [8]

From patent publication USRE49022E1, “Insecticidal compounds” (SYNGENTA PARTICIPATIONS AG, priority 2013, dated 2022)
